Target: T1, Nostoc linoleate 10S-dioxygenase (10S-DOX) (Nostoc punctiforme, UniProt B2J5P4)
T1 sequence (B2J5P4 1-542): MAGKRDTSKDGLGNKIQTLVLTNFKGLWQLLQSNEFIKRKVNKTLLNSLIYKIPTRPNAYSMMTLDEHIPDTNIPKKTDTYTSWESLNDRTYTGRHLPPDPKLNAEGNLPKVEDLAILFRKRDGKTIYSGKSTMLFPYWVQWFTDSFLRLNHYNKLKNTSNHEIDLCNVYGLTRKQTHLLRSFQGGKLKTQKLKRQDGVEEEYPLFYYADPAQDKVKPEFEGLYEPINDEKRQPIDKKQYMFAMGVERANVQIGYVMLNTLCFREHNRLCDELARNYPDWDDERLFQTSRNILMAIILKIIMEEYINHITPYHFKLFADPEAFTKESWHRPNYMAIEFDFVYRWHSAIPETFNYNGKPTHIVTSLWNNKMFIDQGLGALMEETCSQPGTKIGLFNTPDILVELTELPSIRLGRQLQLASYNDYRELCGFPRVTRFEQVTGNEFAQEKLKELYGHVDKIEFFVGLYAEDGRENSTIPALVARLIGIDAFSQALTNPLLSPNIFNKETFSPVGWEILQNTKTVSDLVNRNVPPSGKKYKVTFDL
Test: oxygen uptake kinetics
Format: biochemical

With `CCCCC/C=C\C/C=C\CCCCCCCC(=O)O` [LA, linoleic acid] the Km was 60.3 µM.
